Reference: patent US20040101521A1, “Iron sequestration or elimination to reduce neurodegeneration or Parkinsons disease progression” (The Buck Institute for Research on Aging, priority 2002, published 2004)

Experiments:
[1] = Total SN iron content by mass spectrometry and MRI in CQ-fed mice; assay type: in vivo, mouse; conditions: CQ 30 mg/kg daily oral gavage, 8 weeks, C57B1 mice
Procedure: Mice were housed according to standard animal care protocols, fed ad libitum, kept on a 12-hr light/dark cycle and maintained in a pathogen-free environment in the Buck Institute Vivarium. Animals used for studies were young adults (2-6 months of age). […] For CQ studies, C57B1 mice were obtained from Jackson Labs and randomized for therapy trials. CQ was suspended in 0.05% carboxymethylcellulose (Sigma) and delivered via oral gavage at a daily dosage of 30 mg/kg as previously described for a period of 8 weeks (Cherny et al. (2001) Neuron 30: 665-676); controls received vehicle alone.
MRI studies were performed using a Bruker AMX500 11.7 tesla MRI system as previously described (Gilissen et al. (1998) Am. J. Primatol. 45: 291-299). Brains were fixed as described above and MRI performed in the coronal plane. Comparisons of SN hypointensity (dark area) on T2-weighted MR samples encompassing SNc, SNr, and red nucleus were performed (IPLab Spectrum, Scientific Image Processing from Scanalytics, Inc.)(Morgan et al., 1998). Intensity was normalized using cortical white matter as control.
SN was dissected, snap frozen in liquid nitrogen, lypholized and dry weight/tissue measured. Preweighed lypholized samples were next taken up in 0.1 ml of concentrated nitric acid (Aristar, BDH) and allowed to digest overnight. […]

[2] = system: MPTP-induced oxidative stress; experiment: SN GSH levels after MPTP; assay type: in vivo, mouse; conditions: CQ pretreated animals, 24 hrs after MPTP, n=6
Procedure: Following MPTP or saline injection, GSH levels were measured in the SN by the method of Griffith (Griffith (1980) Anal. Biochem. 106; 207-212).

[3] = system: MPTP-mediated oxidative stress; experiment: Slot blot of 4-HNE-protein conjugates and protein carbonyls in SN after MPTP; assay type: in vivo, mouse; conditions: CQ pretreated animals, 24 hrs after MPTP, n=6
Procedure: SN were dissected and homogenized in 10 mM HEPES-KOH, pH 7.2, 2 mM EDTA, 0.1% CHAPS, 5 mM dithiothreitol (DTT), 1 mM phenylmethylsulfonyl fluoride, 10 μg/ml pepstatin A, 10 μg/ml aprotinin, and 20 μg/ml leupeptin (Nicholson et al. (1995) Nature 376: 37-43). 15 μg of total protein from each sample was either run on a 15% SDS-PAGE gel (BioRad) and transferred to nitrocellulose membrane or directly slotted onto membrane. […] Autoradiography was performed with enhanced chemiluminescence (Amersham Pharmacia). For 4HNNE-protein conjugates and protein carbonyls, relative optical band density were quantified using a Chemilmager 5500 (Alpha Innotech Corporation). Reported values are the results of three independent experiments.

[4] = system: MPTP-induced dopaminergic SN cell loss; experiment: Stereological TH+ SN neuron counts after MPTP; assay type: in vivo, mouse
Procedure: Neuronal counts were performed on TH+ positive SN neurons using the unbiased dissector method (West (1993) Neurobiol. Aging 14: 275-285). Fixed coronal brain sections (40 μm) were immunostained with TH antibody (1:500 dilution, Chemicon), coverslipped in aqueous medium and TH+ cells counted from a total of 15-20 sections in each field per brain (i.e. every second section) at a magnification of 100× using the optical fractionator approach.
(§1) Animals were injected with either 15 mg/kg body weight MPTP or saline every 2 hrs, 4 doses. Dopamine, DOPAC, and HVA or MPP+ from dissected striata were analyzed by I-PLC using a 5 micrometer C-18 reverse phase column and precolumn (Brownlee Labs) followed by electrochemical detection with a glassy carbon electrode (Klivenyi et al. (2000) J. Neurosci. 20: 1-7).

MPTP-induced toxicity = experiment: Striatal dopamine, DOPAC and HVA by HPLC after MPTP; assay type: in vivo, mouse
Procedure: as §1

monoamine oxidase-B = experiment: MAO-B activity in brain homogenates; assay type: in vivo, mouse; conditions: CQ-fed, n=4
Procedure: Brain homogenates were analyzed by the toulene extraction method using 10 μM 14-C labeled PEA as substrate (NEN, […]) as previously described (Wei et al. (1996) J. Neurosci. Res. 46: 666-673; Wei et al. (1997) J. Neurosci. Res. 50: 618-626). Values are reported as cpm/μg protein.

[5] = Open field analysis of spontaneous motor activity; assay type: in vivo, mouse; conditions: mice fed CQ up to 8 weeks vs. saline-fed, n=8
Procedure: 6-8 mice in each category were tested. Behavioral parameters were monitored in a Coulbourn Instrument Tru Scan activity monitor. Motor activities were recorded every 100 ms for a 10 minute period. Tru Scan 99 software was used to generate experimental protocols and to acquire and store the data. The data was exported to EXCEL and analyzed via one way ANOVA.

[6] = Phase II, similar dosage, with B12 supplementation; cited from earlier work
[7] = lipophilic; cited from earlier work
[8] = Yassin et al. 2000; cited from earlier work
plaque formation = conditions: Cherny et al. 2001; cited from earlier work
[9] = mouse, in vivo; cited from earlier work

Oc1c(I)cc(Cl)c2cccnc12 [CQ, 5-chloro-7-iodo-8-hydroxyquinoline]
Reduction of total SN iron levels, CQ-fed vs. saline-fed animals [1]: approximately 30%
Change in SN GSH following MPTP [2]: no significant changes
Change in 4-HNE-protein conjugates in SN following MPTP [3]: no significant changes
Change in protein carbonyl levels in SN following MPTP [3]: no significant changes
Decrease in SN TH+ cell numbers following MPTP ([4]; CQ-fed animals, 7 days after MPTP): 25%
SN TH+ cell numbers ([4]; CQ-fed, MPTP-treated, n=5): 11,462±915
Difference in striatal dopamine levels, saline vs. CQ-fed (MPTP-induced toxicity; absence of MPTP treatment): No significant difference
Loss of striatal dopamine following MPTP (MPTP-induced toxicity; animals pretreated with CQ, 7 days after MPTP): 41%
MAO-B activity (monoamine oxidase-B): 4500±950 cpm/μg protein
Adverse behavioral effects in open field tests [5]: no significant signs of adverse behavioral effects
Adverse effects attributable to CQ administration [6]: No adverse effects
Blood-brain barrier passage [7]: freely crosses the blood-brain barrier
Depletion in systemic iron levels [8]: does not result in depletion
Levels of brain and serum vitamin B12 [8]: lower levels
Plaque formation and behavioral declines in AD transgenic mouse model (plaque formation): inhibit plaque formation and accompanying behavioral declines
Toxicity of the compound in mice [9]: lack of toxicity
